Test results: PMC6856805, “Environmental Risk Assessment for the Active Pharmaceutical Ingredient Mycophenolic Acid in European Surface Waters” (Environmental Toxicology and Chemistry, 2019)
Values joined by “and” are separate entries in the source; they are usually repeats but may differ in a detail not shown here. Identical values can stand only once. Like-named read-outs stand apart in the source and are kept apart here.

Experiments:
[1] = Screening hydrolysis test; assay type: physicochemical; settings: 5 d
Procedure: (§1) Syntex derived many basic physicochemical properties for both MPM and MPA in the early 1990s. The results for MPA are mostly given in the present study.
A screening hydolysis test was performed by Syntex with MPA in 0.1 M buffered solutions in triplicate at pH 5, 7 and 9 over 5 days at 50 °C, with HPLC determination of MPA at the start and end of the exposure, 'closely following US Food and Drug Administration 1987 Environmental Assessment Technical Assistance Handbook recommendations' (Young & Licato 1994b).

humans = assay: Derivation of acceptable daily exposure (ADE); parameters: species or system human
Procedure: Similarly, potential risk for humans from secondary poisoning is assessed by using the acceptable daily exposure (ADE) value for MPA (T. Pfister, unpublished data), which considers toxicological data as well as human experience and covers all routes of uptake, including sensitive subpopulations, over 365 d/annum, with the combined worst‐case uptake through drinking water and fish. No removal of MPA in drinking water production is assumed, but a default intake of 2 L water and 115 g fish/person and day is assumed (European Commission 2011; Murray‐Smith et al. 2012). This combined uptake is then compared with the ADE.
The ADE was derived based on the available nonclinical and clinical data, with the critical effects identified as 1) immunosuppression and secondary effects thereof and 2) teratogenicity; in addition, the relevance of positive results in genotoxicity tests was assessed (T. Pfister, unpublished data). Based on the NOAEL of 2 mg/kg body weight/d in the 12‐mo oral toxicity study in the rat, an ADE was derived by multiplying this NOAEL by a default body weight of 60 kg for humans and dividing by adjustment factors, namely, 6.2 for extrapolation from rats to humans, 10 for variability between individuals, 1 for study duration of 1 yr for rodents, 5 for severity of systemic toxicity (hematopoiesis, immunotoxicity), and 3 for use of an established NOAEL instead of an NOEL; this derivation results in a first ADE of 0.1 mg MPM/60‐kg person/d. […] The weak clastogenic potential observed at higher doses was considered to be irrelevant at these exposure levels. Because the first ADE was lower than, and therefore also protective of, the second, 0.1 mg MPM/60‐kg person/d was selected as the ADE. Stoichiometrically, this ADE for MPM corresponds to 0.0739 mg MPA/d, which was rounded to 0.075 mg or 75 µg MPA/d. The MTDI for an otter was derived by normalizing the ADE for a 60‐kg human to the otter with a default body mass of 10 kg, resulting in an MTDI of 0.0125 mg or 12.5 µg MPA/10‐kg otter/d.

Danio rerio = assay: Fish partial life cycle test, OECD 210 early life stage phase (F1); assay type: in vivo
Procedure: At the highest tested concentration of 0.1 mg MPA/L nominal concentration (73 µg/L GMMC), only 2 of 75 hatched fish survived until the end of the test, showing that the test concentration range was well chosen. The most sensitive endpoints in this partial life cycle test were survival and growth in terms of length and mass of the young F1 fish; the effects were comparatively small but statistically significant at p = 0.05. In contrast, the F0 generation was impacted to a lesser extent.
In view of the mammalian mutagenicity and reprotoxicity, a fish partial life-cycle test (PLC; an OECD 229 short-term reproduction test followed by an OECD 210 early-life-stage test) was performed by ECT Oekotoxikologie under GLP with a series of concentrations of MPA in a flow-through setting with the zebrafish Danio rerio (Gilberg & Chambers 2018). Briefly, mature fish (F0 generation) in breeding groups of 14 fish were exposed to four concentrations of the test item (0.0005, 0.0029, 0.0171 and 0.100 mg MPA/L), in fish media as well as to controls without the test item, in two replicates per treatment including controls, for 23 days in a 14-hours light to 10-hours dark photoperiod (OECD 229 phase). During this time period, reproduction parameters (survival of parents, fecundity, e.g., number of eggs, fertility and embryo viability/hatchability) of zebrafish exposed to the test item were assessed in comparison with the controls to determine the lowest observed effect concentration (LOEC) and the NOEC. After 23 days, newly fertilised eggs of the F1 generation were collected and exposed to the corresponding series of test item concentrations, 20 eggs in four replicates each per treatment including controls, until 30 days post-hatch (OECD 210 phase). Lethal and sublethal effects of the test item on eggs, larvae and juvenile fish exposed to the test item were assessed in comparison with controls to determine the LOEC and the NOEC. Samples were taken and analysed by LC–MS/MS (Supplemental Information) and the GMMC for the concentrations determined. Statistical check were made using Probit analyses, Weibull analyses, 2- and 3-parameter normal CDF, Shapiro-Wilk’s test on normal distribution, Levene’s test on variance homogeneity, Fisher's Exact Binomial test, Chi² 2×2 Table Test, Welsh t-test, Step-down Cochran-Armitage test Procedure, Williams Multiple Sequential t-test Procedure and Dunnett`s Multiple t-test Procedure.

Screening vapor pressure = assay type: physicochemical
Excerpt: as §1
The vapour pressure of MPA was estimated by Syntex by comparing losses of MPA under a nitrogen stream with losses in capped vials and comparing the results with the same losses of a reference substance of known vapour pressure (Young & Licato 1994a).

[2] = OECD test guideline 106 batch equilibrium adsorption test; assay type: physicochemical
Procedure: An OECD 106 phase I batch equilibrium adsorption test was performed by Toxi-Coop, Balatonfűred, Hungary (Halász-Laky 2018) with MPA and three soils plus two activated sludges of different characteristics (pHKCl, organic carbon (OC) content, plus for the soils sand fraction, silt fraction, clay fraction and USDA soil texture).
In short, the substrates were put in contact with MPA in aqueous 0.01 M CaCl2 solutions; the mixture was agitated for an appropriate time to reach equilibrium, in the case of MPA for 10 hours. The soil/sludge suspensions were then separated and the aqueous phase diluted twofold with the mobile HPLC phase, analysed by HPLC (Supplemental Information) and the amount of test item in the water phase calculated. The soil or sludge phases were extracted twice with acetonitrile/water/1 mg/mL NaOH solution (75/75/2, v/v/v); the extracts were diluted twofold with the mobile phase and then analysed by HPLC. Based on the analytics the mass balance could be established. The adsorption constant Kd was calculated as MPA concentration adsorbed to substrate divided by MPA concentration in aqueous CaCl2 solution; subsequently the Kd was normalised to the OC content to result in the KOC for the different substrates (Halász-Laky 2018).

COc1c(C)c2c(c(O)c1CC=C(C)CCC(=O)O)C(=O)OC2 [MPA, 6‐(1,3‐dihydro‐4‐hydroxy‐6‐methoxy‐7‐methyl‐3‐oxo‐5‐isobenzofuranyl)‐4‐methyl‐4‐hexenoic acid]
Screening hydrolysis ([1]; pH 5, 50 °C): 46.15 % Substance loss
Screening hydrolysis ([1]; pH 7, 50 °C): 29.03 % Substance loss
Screening hydrolysis ([1]; pH 9, 50 °C): 36.67 % Substance loss
ADE, rounded (humans): 75 µg MPA/d
ADE, stoichiometric (humans): 0.0739 mg MPA/d
ADE, rounded (humans; MPA/d): 0.075 mg
hatched fish surviving until the end of the test (Danio rerio; 0.1 mg MPA/L nominal (73 µg/L GMMC)): 2 of 75
EC10, hatching success (Danio rerio; 34 d phase): > 73 µg GMMC MPA/L
NOEC, hatching success (Danio rerio; 34 d phase, GMMC): 73 µg/L
lowest EC10 (Danio rerio; Danio rerio, in vivo, 57 d): 5.8 µg MPA/L
overall NOEC for all endpoints in both F0 and F1 generations (Danio rerio; Danio rerio, in vivo, 57 d): 1.32 µg MPA/L
EC10, posthatch success (survival) and number of healthy fish (Danio rerio; F1, GMMC): 5.8 µg MPA/L
NOEC, posthatch success (survival) and number of healthy fish (Danio rerio; F1, GMMC): 10.9 µg MPA/L
EC10, length of the surviving F1 fish (Danio rerio; GMMC): 31.9 µg MPA/L
EC10, wet weight of the surviving F1 fish (Danio rerio; GMMC): 10.6 µg MPA/L
NOEC, length of the surviving F1 fish (Danio rerio; GMMC): 1.32 µg/L
NOEC, wet weight of the surviving F1 fish (Danio rerio; GMMC): 1.32 µg/L
Vapor pressure (Screening vapor pressure): < 10^–6 hPa
highest K OC ([2]; in one of the activated sludges): 37 L/kg
activated sludge K d ([2]; two activated sludges): 9.3 L/kg and 13 L/kg
